Key:
[1] = Apparent permeability in Caco-2 cells; assay type: in vitro ADME; conditions: human; for Papp A→B at 1 h, 4 µM / Papp B→A at 1 h, 4 µM: Caco-2, pH 7.4
Protocol: Caco-2 cells (passage no. 41–42) were grown in tissue culture flasks containing Dulbecco’s Modified Eagle Medium supplemented with 20% FBS, 1% nonessential amino acids, and 1% penicillin–streptomycin. […] The culture medium was replaced every other day. On the day of the experiment, the growth medium was discarded, and the attached cells were washed with prewarmed HBSS (pH 7.4) and preincubated with HBSS for 20 min at 37 °C. […] Aliquots (30 μL) of each sample were vortex-mixed with 90 μL of IS solution for 1 min, and then centrifugation was performed at 13,500 rpm at 4 °C for 5 min. Aliquots (5 μL) of the supernatant were injected into the LC-MS/MS for analysis.

OAT1 = target: T1, OAT1 (Homo sapiens, UniProt Q4U2R8); experiment: Uptake into HEK293 cells expressing OAT1; conditions: for Uptake Rate / Fold-Change: 6 μM; for Substrate: OAT1; for Fold-Change: vs HEK293-mock
T1 sequence (Q4U2R8 1-563): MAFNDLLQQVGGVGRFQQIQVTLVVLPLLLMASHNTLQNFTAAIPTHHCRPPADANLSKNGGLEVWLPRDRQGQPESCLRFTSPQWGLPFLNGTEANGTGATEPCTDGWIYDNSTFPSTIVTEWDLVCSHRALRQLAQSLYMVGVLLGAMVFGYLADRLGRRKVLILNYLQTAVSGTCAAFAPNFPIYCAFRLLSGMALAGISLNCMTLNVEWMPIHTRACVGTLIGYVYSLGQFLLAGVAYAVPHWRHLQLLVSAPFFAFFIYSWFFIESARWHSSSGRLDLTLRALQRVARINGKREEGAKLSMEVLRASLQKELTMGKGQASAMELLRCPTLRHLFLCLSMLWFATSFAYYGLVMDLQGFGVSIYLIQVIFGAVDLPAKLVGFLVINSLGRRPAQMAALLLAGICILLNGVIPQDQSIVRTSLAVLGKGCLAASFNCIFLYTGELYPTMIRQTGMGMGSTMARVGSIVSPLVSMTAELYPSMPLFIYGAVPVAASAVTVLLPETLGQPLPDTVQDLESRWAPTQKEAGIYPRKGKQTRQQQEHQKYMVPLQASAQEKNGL

OAT3 = target: T2, OAT3 (Homo sapiens, UniProt Q8TCC7); experiment: Uptake into HEK293 cells expressing OAT3; conditions: for Uptake Rate / Fold-Change: 6 μM; for Substrate: OAT3; for Fold-Change: vs HEK293-mock
T2 sequence (Q8TCC7 1-542): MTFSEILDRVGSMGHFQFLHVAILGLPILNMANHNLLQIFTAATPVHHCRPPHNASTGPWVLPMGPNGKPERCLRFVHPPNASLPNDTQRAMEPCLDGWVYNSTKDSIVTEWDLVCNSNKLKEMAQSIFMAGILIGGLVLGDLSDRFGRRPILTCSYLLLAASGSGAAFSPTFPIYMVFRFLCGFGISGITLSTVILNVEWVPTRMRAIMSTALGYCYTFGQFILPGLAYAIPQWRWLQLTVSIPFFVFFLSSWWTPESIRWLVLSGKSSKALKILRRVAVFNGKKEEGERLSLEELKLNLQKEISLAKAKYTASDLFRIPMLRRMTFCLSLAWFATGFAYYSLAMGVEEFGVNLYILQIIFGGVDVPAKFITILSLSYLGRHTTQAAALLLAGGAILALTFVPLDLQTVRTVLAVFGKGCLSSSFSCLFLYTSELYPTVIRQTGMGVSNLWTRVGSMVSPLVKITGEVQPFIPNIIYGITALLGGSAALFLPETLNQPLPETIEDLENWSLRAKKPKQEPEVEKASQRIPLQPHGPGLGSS

OCT1 = target: T3, OCT1 (Homo sapiens, UniProt O15245); experiment: Uptake into HEK293 cells expressing OCT1; conditions: for Uptake Rate / Fold-Change: 6 μM; for Substrate: OCT1; for Fold-Change: vs HEK293-mock
T3 sequence (O15245 1-554): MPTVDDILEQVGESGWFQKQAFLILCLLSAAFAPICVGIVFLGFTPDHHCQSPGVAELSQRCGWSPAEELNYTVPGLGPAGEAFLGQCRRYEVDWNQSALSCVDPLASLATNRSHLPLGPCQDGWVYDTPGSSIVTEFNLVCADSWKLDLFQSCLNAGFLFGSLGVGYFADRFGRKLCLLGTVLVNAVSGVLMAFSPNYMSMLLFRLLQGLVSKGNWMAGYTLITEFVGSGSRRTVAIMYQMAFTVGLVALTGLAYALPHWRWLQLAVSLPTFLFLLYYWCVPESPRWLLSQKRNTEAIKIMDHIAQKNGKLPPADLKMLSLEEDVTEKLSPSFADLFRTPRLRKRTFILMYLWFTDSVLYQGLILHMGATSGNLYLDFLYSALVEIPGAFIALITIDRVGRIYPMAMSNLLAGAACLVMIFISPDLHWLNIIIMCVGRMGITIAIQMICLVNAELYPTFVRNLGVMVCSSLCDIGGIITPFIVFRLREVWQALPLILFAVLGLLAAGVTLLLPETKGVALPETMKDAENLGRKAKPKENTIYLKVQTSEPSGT

Row | Papp A→B at 1 h, 4 µM [1] [×10⁻⁶ cm/s] | Papp B→A at 1 h, 4 µM [1] [×10⁻⁶ cm/s] | Uptake Rate (OAT1; HEK293-OAT1, control) [pmol/min/10^5 Cells] | Uptake Rate (OAT1; HEK293-OAT1, probenecid 20 μM) [pmol/min/10^5 Cells] | Substrate (OAT1) | Uptake Rate (OAT3; HEK293-OAT3, control) [pmol/min/10^5 Cells] | Uptake Rate (OAT3; HEK293-OAT3, probenecid 20 μM) [pmol/min/10^5 Cells] | Substrate (OAT3) | Uptake Rate (OCT1; HEK293-OCT1, cimetidine 100 μM) [pmol/min/10^5 Cells] | Uptake Rate (OCT1; HEK293-OCT1, control) [pmol/min/10^5 Cells] | Substrate (OCT1) | efflux ratio at 1 h, 4 µM ([1]; pH 7.4, Caco-2, mean Papp,BA / mean Papp,AB, read-out: ER) | Fold-Change (OAT1; HEK293-OAT1, control) | Fold-Change (OAT1; HEK293-OAT1, probenecid 20 μM) | Fold-Change (OAT3; HEK293-OAT3, control) | Fold-Change (OAT3; HEK293-OAT3, probenecid 20 μM) | Fold-Change (OCT1; HEK293-OCT1, cimetidine 100 μM) | Fold-Change (OCT1; HEK293-OCT1, control) | Structure (SMILES)
1 | 23 ± 5.79 | 10.7 ± 1.77 | 68.04 ± 2.96 | 61.04 ± 5.29 | No | 58.53 ± 3.71 | 52.47 ± 2.27 | No | 82.01 ± 3.72 | 82.43 ± 3.59 | No |  |  |  |  |  |  |  | Cc1cccc(C)c1CNc1cc(C(=O)N2CCC2)cn2c(C)c(C)nc12 [JP-1366, 1-azetidinyl(8-(((2,6-dimethylphenyl)methyl)amino)-2,3-dimethylimidazo(1,2-a)pyridin-6-yl)methanone]
2 | 3.36 ± 0.24 | 20.3 ± 1.51 | 68.04 ± 2.96 | 61.04 ± 5.29 | No | 58.53 ± 3.71 | 52.47 ± 2.27 | No | 82.01 ± 3.72 | 82.43 ± 3.59 | No | 6 | 1.3 | 1.2 | 1.1 | 1.0 | 1.6 | 1.6 | Cc1cccc(CO)c1CNc1cc(C(=O)N2CCC2)cn2c(C)c(C)nc12 [M1, azetidin-1-yl(8-((2-(hydroxymethyl)-6-methyl-benzyl)amino)-2,3-dimethylimidazo[1,2-a]pyridin-6-yl)methanone]

— publication PMC11207335, “In Vitro Metabolism and Transport Characteristics of Zastaprazan” (Pharmaceutics, 2024)
